Data reported in ChEMBL document CHEMBL5046253, “Synthesis and bioevaluation of diaryl urea derivatives as potential antitumor agents for the treatment of human colorectal cancer” (Eur J Med Chem, 2022).

Experiments:
[1] = system: HCT-116; assay: Inhibition of cell migration in human HCT-116 cells at 6 uM measured after 24 hrs by wound healing assay (reference value: 31.16 %); assay type: functional
[2] = AUC (0 to infinity) in Sprague-Dawley rat at 20 mg/kg, iv by LC-MS/MS analysis; assay type: ADME, organism-based; design: route intravenous, time infinity, dose 20 mg/kg; conditions: in vivo
[3] = Selectivity index, ratio of IC50 for antiproliferative activity against human L02 cells to IC50 for antiproliferative activity against human HepG2 cells; assay type: toxicity, cell-based; conditions: L02 cells versus HepG2 cells, read-out: Ratio IC50
[4] = MRT in Sprague-Dawley rat at 20 mg/kg, iv by LC-MS/MS analysis; assay type: ADME, organism-based; conditions: in vivo
[5] = system: A-431; assay: Antiproliferative activity against human A431 cells harboring wild type EGFR mutant assessed as reduction in cell viability incubated for 72 hrs by celltiter-glo assay; assay type: functional, cell-based; conditions: A-431, 72 h
[6] = target: Cytochrome P450 2C9 (Homo sapiens, UniProt P11712); assay: Inhibition of CYP2C9 (unknown origin); assay type: ADME
[7] = target: T1, Phosphatidylinositol 4,5-bisphosphate 3-kinase catalytic subunit delta isoform (Homo sapiens, UniProt O00329); assay: Inhibition of PI3Kdelta (unknown origin) using PIP2 as substrate in presence of ATP incubated for 60 mins by ADP-glo based luminescence assay
T1 sequence (O00329 whole entry): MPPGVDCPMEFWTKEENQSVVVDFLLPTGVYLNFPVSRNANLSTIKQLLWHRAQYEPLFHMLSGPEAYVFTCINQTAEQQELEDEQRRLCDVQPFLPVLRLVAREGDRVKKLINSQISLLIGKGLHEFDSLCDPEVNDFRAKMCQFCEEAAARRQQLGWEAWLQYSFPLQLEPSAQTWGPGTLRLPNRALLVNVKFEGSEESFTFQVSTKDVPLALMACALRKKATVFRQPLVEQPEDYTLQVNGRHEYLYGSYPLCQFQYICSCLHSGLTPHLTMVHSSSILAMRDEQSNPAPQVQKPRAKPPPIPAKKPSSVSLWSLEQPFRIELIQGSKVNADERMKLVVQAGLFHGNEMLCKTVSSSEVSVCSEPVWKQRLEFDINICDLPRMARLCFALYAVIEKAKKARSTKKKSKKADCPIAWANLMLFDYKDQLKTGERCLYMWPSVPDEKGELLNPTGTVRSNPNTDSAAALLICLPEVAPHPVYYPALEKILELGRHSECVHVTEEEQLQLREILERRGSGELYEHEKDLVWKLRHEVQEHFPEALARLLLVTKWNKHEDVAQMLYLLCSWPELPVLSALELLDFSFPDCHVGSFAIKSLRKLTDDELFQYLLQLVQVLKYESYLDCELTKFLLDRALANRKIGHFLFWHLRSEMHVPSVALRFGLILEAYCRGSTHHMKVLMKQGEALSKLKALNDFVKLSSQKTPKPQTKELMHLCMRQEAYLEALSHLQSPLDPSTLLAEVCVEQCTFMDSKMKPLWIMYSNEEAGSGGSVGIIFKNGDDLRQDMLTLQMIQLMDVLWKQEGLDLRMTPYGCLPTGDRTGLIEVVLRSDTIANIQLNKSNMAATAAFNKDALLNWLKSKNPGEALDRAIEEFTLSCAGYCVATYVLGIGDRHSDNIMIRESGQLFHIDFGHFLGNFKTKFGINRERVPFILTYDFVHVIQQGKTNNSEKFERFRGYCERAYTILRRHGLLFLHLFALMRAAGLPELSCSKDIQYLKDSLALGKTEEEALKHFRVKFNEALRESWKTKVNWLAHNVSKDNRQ

[8] = system: HCT-116; assay: Induction of apoptosis in human HCT-116 cells assessed as viable cells at 2.5 uM incubated for 24 hrs by annexin V FITC/propidium iodide staining based flow cytometry (reference value: 81.2 %); assay type: functional; conditions: read-out: Activity
[9] = system: CNE-2; assay: Antiproliferative activity against human CNE-2 cells assessed as reduction in cell viability incubated for 48 hrs by MTT assay; assay type: functional, cell-based; conditions: CNE-2, 48 h
[10] = system: MCF7; assay: Antiproliferative activity against human MCF7 cells assessed as reduction in cell viability incubated for 48 hrs by MTT assay; assay type: functional, cell-based; conditions: MCF7, 48 h
[11] = Half life in Sprague-Dawley rat at 20 mg/kg, iv by LC-MS/MS analysis; assay type: ADME, organism-based; conditions: in vivo
[12] = target: Phosphatidylinositol 4,5-bisphosphate 3-kinase catalytic subunit beta isoform (Homo sapiens, UniProt P42338); assay: Inhibition of PI3Kbeta (unknown origin) using PIP2 as substrate in presence of ATP incubated for 60 mins by ADP-glo based luminescence assay
[13] = target: Cytochrome P450 1A2 (Homo sapiens, UniProt P05177); assay: Inhibition of CYP1A2 (unknown origin); assay type: ADME
[14] = Tmax in Sprague-Dawley rat at 20 mg/kg, iv by LC-MS/MS analysis; assay type: ADME, organism-based; conditions: in vivo
[15] = system: Kidney; assay: Toxicity in BALB/c mouse assessed as effect on kidney by H and E staining based histological analysis; assay type: tissue-based; conditions: in vivo
[16] = system: HCT-116; assay: Induction of apoptosis in human HCT-116 cells assessed as viable cells at 5 uM incubated for 24 hrs by annexin V FITC/propidium iodide staining based flow cytometry (reference value: 81.2 %); assay type: functional; conditions: read-out: Activity
[17] = system: HCT-116; assay: Induction of apoptosis in human HCT-116 cells assessed as late apoptotic cells at 5 uM incubated for 24 hrs by annexin V FITC/propidium iodide staining based flow cytometry (reference value: 6.8 %); assay type: functional
[18] = system: HCT-116; assay: Induction of apoptosis in human HCT-116 cells assessed as early apoptotic cells at 2.5 uM incubated for 24 hrs by annexin V FITC/propidium iodide staining based flow cytometry (reference value: 11.1 %); assay type: functional
[19] = system: HeLa; assay: Antiproliferative activity against human HeLa cells assessed as reduction in cell viability incubated for 48 hrs by MTT assay; assay type: functional, cell-based
[20] = Stability in Sprague-Dawley rat plasma; assay type: ADME, cell-free
[21] = target: Cytochrome P450 2D6 (Homo sapiens, UniProt P10635); assay: Inhibition of CYP2D6 (unknown origin); assay type: ADME
[22] = system: HCT-116; assay: Induction of apoptosis in human HCT-116 cells assessed as late apoptotic cells at 2.5 uM incubated for 24 hrs by annexin V FITC/propidium iodide staining based flow cytometry (reference value: 6.8 %); assay type: functional
[23] = system: MDA-MB-231; assay: Antiproliferative activity against human MDA-MB-231 cells assessed as reduction in cell viability incubated for 48 hrs by MTT assay; assay type: functional, cell-based; conditions: MDA-MB-231, 48 h
[24] = system: L02; assay: Antiproliferative activity against human L02 cells assessed as reduction in cell viability incubated for 48 hrs by MTT assay; assay type: cell-based; conditions: L02, 48 h
[25] = system: HCT-116; assay: Induction of cell cycle arrest in human HCT-116 cells assessed as increase in accumulation at G2/M phase at 1.5 to 6 uM after 24 hrs by propidium iodide staining based flow cytometric analysis (reference value: 19.1 %); assay type: functional; conditions: dose 1.5-6 µM
[26] = target: Phosphatidylinositol 4,5-bisphosphate 3-kinase catalytic subunit alpha isoform (Homo sapiens, UniProt P42336); assay: Inhibition of PI3Kalpha (unknown origin) using PIP2 as substrate in presence of ATP incubated for 60 mins by ADP-glo based luminescence assay
[27] = Stability of the compound in simulated gastrointestinal fluid; assay type: ADME

Chain of Cytochrome P450 2C9 (P11712 whole entry, canonical isoform): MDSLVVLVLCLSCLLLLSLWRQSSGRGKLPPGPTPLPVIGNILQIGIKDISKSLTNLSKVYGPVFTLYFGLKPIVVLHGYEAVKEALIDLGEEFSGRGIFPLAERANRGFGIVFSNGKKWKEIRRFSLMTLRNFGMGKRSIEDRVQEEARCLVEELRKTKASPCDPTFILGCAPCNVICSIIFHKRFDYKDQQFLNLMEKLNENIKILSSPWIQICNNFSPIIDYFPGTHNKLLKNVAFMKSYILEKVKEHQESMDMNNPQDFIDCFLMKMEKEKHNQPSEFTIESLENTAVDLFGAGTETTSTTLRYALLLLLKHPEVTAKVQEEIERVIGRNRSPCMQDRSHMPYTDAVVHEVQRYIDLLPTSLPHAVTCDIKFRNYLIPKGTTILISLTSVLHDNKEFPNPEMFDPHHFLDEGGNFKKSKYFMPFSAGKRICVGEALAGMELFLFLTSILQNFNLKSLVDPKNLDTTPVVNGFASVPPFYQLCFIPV
Chain of Phosphatidylinositol 4,5-bisphosphate 3-kinase catalytic subunit alpha isoform (P42336 whole entry, canonical isoform): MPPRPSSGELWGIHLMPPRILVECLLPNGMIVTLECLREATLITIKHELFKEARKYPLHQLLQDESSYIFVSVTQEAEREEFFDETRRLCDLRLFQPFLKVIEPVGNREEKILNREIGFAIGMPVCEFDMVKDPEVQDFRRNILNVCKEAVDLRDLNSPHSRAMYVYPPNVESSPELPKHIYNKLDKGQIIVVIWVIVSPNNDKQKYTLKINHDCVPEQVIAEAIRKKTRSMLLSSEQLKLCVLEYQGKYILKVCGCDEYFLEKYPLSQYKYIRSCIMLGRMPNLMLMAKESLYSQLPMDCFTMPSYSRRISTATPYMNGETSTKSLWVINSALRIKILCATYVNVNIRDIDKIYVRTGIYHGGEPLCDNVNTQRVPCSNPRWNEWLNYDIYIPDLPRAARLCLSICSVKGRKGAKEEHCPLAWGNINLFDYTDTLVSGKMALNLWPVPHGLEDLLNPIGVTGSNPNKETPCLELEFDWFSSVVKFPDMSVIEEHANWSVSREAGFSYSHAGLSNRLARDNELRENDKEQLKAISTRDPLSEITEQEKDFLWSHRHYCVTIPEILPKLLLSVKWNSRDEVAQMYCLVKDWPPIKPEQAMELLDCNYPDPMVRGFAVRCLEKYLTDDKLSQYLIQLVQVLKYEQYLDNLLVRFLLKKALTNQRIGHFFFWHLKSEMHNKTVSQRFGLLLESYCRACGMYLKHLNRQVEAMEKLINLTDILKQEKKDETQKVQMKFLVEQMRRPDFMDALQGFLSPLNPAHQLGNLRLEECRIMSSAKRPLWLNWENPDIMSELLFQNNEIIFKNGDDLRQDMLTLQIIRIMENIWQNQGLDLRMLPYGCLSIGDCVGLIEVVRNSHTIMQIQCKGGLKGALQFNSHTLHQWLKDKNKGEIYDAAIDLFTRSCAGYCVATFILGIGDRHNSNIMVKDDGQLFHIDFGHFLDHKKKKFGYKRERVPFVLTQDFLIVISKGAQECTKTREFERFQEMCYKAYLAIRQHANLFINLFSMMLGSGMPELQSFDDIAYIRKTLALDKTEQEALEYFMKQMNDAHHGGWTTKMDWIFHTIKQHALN
Chain of Cytochrome P450 1A2 (P05177 whole entry): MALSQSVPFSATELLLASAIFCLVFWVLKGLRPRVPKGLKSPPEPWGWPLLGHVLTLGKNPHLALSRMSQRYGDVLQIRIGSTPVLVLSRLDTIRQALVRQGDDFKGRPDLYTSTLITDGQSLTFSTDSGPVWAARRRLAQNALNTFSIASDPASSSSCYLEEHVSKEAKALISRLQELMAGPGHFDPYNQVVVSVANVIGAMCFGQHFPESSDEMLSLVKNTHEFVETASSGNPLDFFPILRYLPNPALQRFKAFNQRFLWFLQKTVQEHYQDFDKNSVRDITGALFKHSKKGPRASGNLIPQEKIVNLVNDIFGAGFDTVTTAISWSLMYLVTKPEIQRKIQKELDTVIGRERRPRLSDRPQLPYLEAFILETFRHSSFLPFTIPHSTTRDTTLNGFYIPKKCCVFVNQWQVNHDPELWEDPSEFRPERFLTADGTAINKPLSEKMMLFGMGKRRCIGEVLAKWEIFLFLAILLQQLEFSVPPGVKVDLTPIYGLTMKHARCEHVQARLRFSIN
Chain of Cytochrome P450 2D6 (P10635 whole entry): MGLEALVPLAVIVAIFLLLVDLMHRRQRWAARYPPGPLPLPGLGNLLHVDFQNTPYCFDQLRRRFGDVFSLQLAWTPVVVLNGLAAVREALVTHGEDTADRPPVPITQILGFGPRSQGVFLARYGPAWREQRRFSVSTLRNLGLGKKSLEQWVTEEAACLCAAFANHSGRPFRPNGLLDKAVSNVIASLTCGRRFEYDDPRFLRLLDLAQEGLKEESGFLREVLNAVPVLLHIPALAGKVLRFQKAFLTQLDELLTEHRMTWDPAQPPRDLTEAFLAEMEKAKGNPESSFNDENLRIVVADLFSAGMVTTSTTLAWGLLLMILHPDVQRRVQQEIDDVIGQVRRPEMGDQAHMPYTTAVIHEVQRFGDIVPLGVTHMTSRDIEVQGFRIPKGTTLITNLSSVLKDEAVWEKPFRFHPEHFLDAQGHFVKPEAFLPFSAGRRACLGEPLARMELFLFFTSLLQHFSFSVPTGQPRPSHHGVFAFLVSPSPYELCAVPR
Chain of Phosphatidylinositol 4,5-bisphosphate 3-kinase catalytic subunit beta isoform (P42338 whole entry, canonical isoform): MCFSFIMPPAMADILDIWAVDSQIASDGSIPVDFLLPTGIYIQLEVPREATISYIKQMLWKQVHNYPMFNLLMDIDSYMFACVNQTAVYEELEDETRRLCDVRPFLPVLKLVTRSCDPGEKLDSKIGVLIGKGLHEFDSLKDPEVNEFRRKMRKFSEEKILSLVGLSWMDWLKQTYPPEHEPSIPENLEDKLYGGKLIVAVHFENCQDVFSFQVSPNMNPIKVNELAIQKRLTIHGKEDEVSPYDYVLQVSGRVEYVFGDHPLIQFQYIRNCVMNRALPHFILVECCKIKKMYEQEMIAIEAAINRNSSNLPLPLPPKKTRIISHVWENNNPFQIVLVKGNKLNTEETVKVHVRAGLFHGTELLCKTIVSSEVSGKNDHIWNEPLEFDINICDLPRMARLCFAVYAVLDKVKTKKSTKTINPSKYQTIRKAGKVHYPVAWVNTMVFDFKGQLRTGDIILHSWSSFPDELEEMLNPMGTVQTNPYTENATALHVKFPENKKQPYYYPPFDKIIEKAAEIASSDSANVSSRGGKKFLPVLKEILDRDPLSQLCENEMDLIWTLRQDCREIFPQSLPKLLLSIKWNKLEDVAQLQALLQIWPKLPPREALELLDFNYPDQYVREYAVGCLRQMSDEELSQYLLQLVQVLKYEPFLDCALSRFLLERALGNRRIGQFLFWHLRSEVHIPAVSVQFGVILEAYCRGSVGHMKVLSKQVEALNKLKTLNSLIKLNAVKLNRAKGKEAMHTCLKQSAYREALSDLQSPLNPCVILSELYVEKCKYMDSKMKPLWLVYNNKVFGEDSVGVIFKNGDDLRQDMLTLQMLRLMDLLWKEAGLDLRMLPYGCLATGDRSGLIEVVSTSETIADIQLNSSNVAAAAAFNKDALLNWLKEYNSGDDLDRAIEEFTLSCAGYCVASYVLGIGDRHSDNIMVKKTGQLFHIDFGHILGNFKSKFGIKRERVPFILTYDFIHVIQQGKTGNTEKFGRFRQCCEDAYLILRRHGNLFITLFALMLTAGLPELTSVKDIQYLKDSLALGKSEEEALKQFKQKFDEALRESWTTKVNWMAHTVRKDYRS

AUC(0-inf) [2]: 30600 ng·h/mL
MRT [4]: 10.4 h
IC50 [5]: 218 nM
IC50 [6]: > 50 µM
IC50 [7]: 27.4 nM
IC50 [10]: 2220 nM
half-life [11]: 1140 min
IC50 [12]: 4.3 nM
IC50 [13]: > 50 µM
Tmax [14]: 1.8 min
IC50 [19]: 13.4 µM
Stability [20]: Stable
IC50 [21]: > 50 µM
IC50 [23]: 6.48 µM
IC50 [26]: 0.7 nM
Stability [27]: Stable
SMILES: NC(=O)[C@@H]1CCCN1C(=O)c1ccc(NC(=O)Nc2ccc(-c3nc(N4CCOCC4)nc(N4CCOCC4)n3)cc2)cc1
inhibition at 6 µM [1]: 6.4%
selectivity ratio [3]: 6.6
viability at 2.5 µM [8]: 58.7%
IC50 [9]: 70 nM
Activity [15]: Non-Toxic
viability at 5 µM [16]: 75.2%
Activity [17]: 9.71%
Activity [18]: 18.5%
Activity [22]: 20.6%
IC50 [24]: > 100 µM
Activity [25]: 22.2%
